Laboratory results published in PubChem BioAssay (NCI).
Several values for one entry are separate records, joined by “and”; a condition that tells them apart may be missing. Equal values may be shown once.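 Protocol summary: plate cells (96-well), add compound at 5 concentrations, incubate 48 h, interpolate endpoints linearly. Here, GI50 denotes the concentration required for 50% inhibition of growth. TGI: total growth inhibition.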

Tests used:
Test in all cases: NCI tumour cell line growth inhibition, 48 h
[1] = test system: RPMI-8226 leukemia
[2] = test system: CCRF-CEM leukemia
[3] = test system: HOP-62 NSCLC
[4] = test system: SW-620 colon
[5] = test system: EKVX NSCLC
[6] = test system: SK-MEL-5 melanoma
[7] = test system: SF-539 CNS
[8] = test system: PC-3 prostate
[9] = test system: A498 renal
[10] = test system: MCF7 breast

| SMILES | GI50 [1] | TGI [1] | GI50 [2] | TGI [2] | GI50 [3] | TGI [3] | GI50 [4] | TGI [4] | GI50 [5] | TGI [5] | GI50 [6] | TGI [6] | GI50 [7] | TGI [7] | GI50 [8] | TGI [8] | GI50 [9] | TGI [9] | GI50 [10] | TGI [10] |
| --- | --- | --- | --- | --- | --- | --- | --- | --- | --- | --- | --- | --- | --- | --- | --- | --- | --- | --- | --- | --- |
| C=C(C)[C@@H]1CCC[C@]2(C(=O)O)CC[C@]3(C)[C@@H](CC[C@@H]4[C@@]5(C)C/C(=C/c6ccncc6)C(=O)C(C)(C)[C@@H]5CC[C@]43C)[C@@H]12 | 1.8 µM | 7.5 µM | 3.16 µM | > 100 µM | 2.78 µM | 8.28 µM | 3.14 µM | 9.6 µM | 3.2 µM | 46.3 µM | 1.96 µM | 4.51 µM | 2.7 µM | 11.9 µM | 2.39 µM | 20.3 µM | 1.62 µM | 5.01 µM | 2.77 µM | 28.5 µM |
| CCCCCCCCCCCCCCCCCC1=NC(C)(C)CN1CCO | – | – | 1.92 µM | 5.05 µM | 1.82 µM | 3.54 µM | 1.75 µM | 3.21 µM | 3.8 µM | 18.6 µM | 2.16 µM | 4.95 µM | 1.75 µM | 3.15 µM | 1.63 µM | 4.43 µM | 13.5 µM | 32.1 µM | 1.78 µM | 3.32 µM |
| CCC1(N2C(=O)c3c(F)c(F)c(F)c(F)c3C2=O)C(=O)NC(=O)N(c2ccccc2)C1=O (stereo unspecified) | 0.331 µM | 2.58 µM | 1.31 µM | 3.8 µM | 4.93 µM | 20.8 µM | 1.76 µM | 3.96 µM | 2.77 µM | 8.01 µM | – | – | 2.24 µM | 4.33 µM | 2.28 µM | 16 µM | 12.2 µM | 25.9 µM | 2.21 µM | 17 µM |
| CN1CCN(C(=S)SCN2C(=O)c3ccccc3S2(=O)=O)CC1 | 2.22 µM | 6.87 µM | 2.23 µM | – | > 100 µM | > 100 µM | 9.31 µM | 74.9 µM | > 100 µM | > 100 µM | 16.1 µM | 38.9 µM | 36.8 µM | > 100 µM | 10.8 µM | 39.2 µM | 93 µM | > 100 µM | 8.29 µM | > 100 µM |
| CN(C)c1ccc(Sc2ccc3nc(N)nc(N)c3c2)cc1 | 2.92 µM | 10.9 µM | 0.906 µM | 30.1 µM | 0.884 µM | 15.6 µM | 0.318 µM | 2.1 µM | 2.27 µM | 23.5 µM | 0.503 µM | 4.78 µM | 0.985 µM | 10.3 µM | 0.63 µM | 15.6 µM | 3.34 µM | 14 µM | 1.14 µM | 13.4 µM |
| N#Cc1ccc(N2Cc3cc(Cl)ccc3OC3=C2C(=O)N(Cc2ccccc2)C3=O)cc1 | 0.28 µM | 1.06 µM | 0.226 µM | 0.827 µM | 2.35 µM | 6.12 µM | 0.278 µM | 0.971 µM | 2.02 µM | 4.92 µM | 1.84 µM | 3.51 µM | 1.7 µM | 3.19 µM | 1.41 µM | 3.52 µM | 1.83 µM | 3.96 µM | 0.769 µM | 4.72 µM |
| CN1C(=O)C23CC4=CC=CC(O)C4N2C(=O)C1(CO)SS3 (stereo unspecified) | – | 0.591 µM | – | – | – | 0.322 µM | – | 0.634 µM | – | 1.33 µM | – | 0.38 µM | – | 0.17 µM | – | 0.387 µM | – | 0.402 µM | – | 0.371 µM |
| CCSc1nc(N)c2cnn(C)c2n1 | 37.5 µM | > 100 µM | 42.3 µM | > 100 µM | – | – | 34.2 µM | > 100 µM | 56.7 µM | > 100 µM | 16.1 µM | 38.9 µM | 36.1 µM | > 100 µM | 38.9 µM | > 100 µM | 3.26 µM | 21.5 µM | 28 µM | > 100 µM |
| CCOC(=O)Cc1csc(NC(=O)C(OC(=O)c2ccc(N)cc2)c2ccccc2)n1 (stereo unspecified) | 63.9 µM | > 100 µM | – | – | 52 µM | > 100 µM | 49.5 µM | > 100 µM | > 100 µM | > 100 µM | 18.9 µM | 39.1 µM | 30.6 µM | 87.4 µM | 50.7 µM | > 100 µM | 72.1 µM | > 100 µM | 32.3 µM | > 100 µM |
| CC[C@@]1(OC(=O)CN(C)C)C(=O)OCc2c1cc1n(c2=O)Cc2cc3ccccc3nc2-1 | 0.00464 µM | – | – | – | – | 1.36 µM | 0.16 µM | – | 1.88 µM | – | 0.0379 µM | 0.316 µM and 0.213 µM | < 0.0167 µM | 0.0572 µM and 0.315 µM | 0.476 µM | – | 0.0851 µM | 0.984 µM and 0.317 µM | 0.0235 µM | > 100 µM |
| CCCCCCN1C(=O)CN=C1Nc1ccc2cc3ccc(NC4=NCC(=O)N4CCCCCC)cc3nc2c1 | 2.07 µM | 5.52 µM | 2.49 µM | 6.79 µM | – | – | 1.84 µM | 3.7 µM | 1.89 µM | 5.22 µM | 3.9 µM | 15.8 µM | 1.81 µM | 3.63 µM | 2.54 µM | 9 µM | 15.9 µM | 32.6 µM | 1.66 µM | 3.95 µM |
